In the assay the target is T1, NAD(P)-dependent alcohol dehydrogenase (ADH) (Gluconobacter frateurii, UniProt Z9DFN4ZG31).
T1 construct: primers encode N-terminal MAQALVLEK and C-terminal DVKLQIVL
T1 sequence (Z9DFN4ZG31 1-345): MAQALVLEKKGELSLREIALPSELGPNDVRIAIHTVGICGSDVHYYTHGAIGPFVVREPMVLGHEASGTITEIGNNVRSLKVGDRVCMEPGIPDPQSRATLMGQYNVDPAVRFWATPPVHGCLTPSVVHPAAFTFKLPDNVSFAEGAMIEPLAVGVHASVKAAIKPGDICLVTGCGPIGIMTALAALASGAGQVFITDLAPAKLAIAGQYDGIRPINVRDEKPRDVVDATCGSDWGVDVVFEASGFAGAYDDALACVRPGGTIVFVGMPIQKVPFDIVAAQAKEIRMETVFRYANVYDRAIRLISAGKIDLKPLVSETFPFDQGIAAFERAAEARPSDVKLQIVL
The assay can be described thus: global fit (genetic algorithm) of HPLC time courses at […] allitol. It counts as biochemical. Conditions: product inhibition, noncompetitive form with exponent alpha 1.326; one ki shared by fits with and without Co2+; allitol as substrate; NAD+ 2 mM, pH 7.0, 50 °C; purified or crude enzyme not stated.

Structures are written as SMILES. pKi: −log10 of the molar value.

Take `OCC1(O)OC[C@@H](O)[C@@H](O)[C@H]1O` (stereo partly drawn) [D-allulose]: the negative-log Ki (pKi) is 1.97.

For the origin of these results see article PMC9083112, “D-Allulose (D-Psicose) Biotransformation From Allitol by a Newly Found NAD(P)-Dependent Alcohol Dehydrogenase From Gluconobacter frateurii NBRC 3264 and the Enzyme Characterization” (Frontiers in Microbiology, 2022).
